This is an account of results in patent US20040110848A1, “Method and kit for treating cancer” (priority 2002, published 2004).

Assay [1] concerns 4E-BP1 (Ser65). The experiment in a line: Western blot of phospho-4E-BP1 (Ser65) in prostate cancer cells. Type of assay: cell-based, human. The following applies: both prostate cell lines (PC-3, DU145); perillyl alcohol 400 μM 16 hr, genistein 40 μM 4 hr, LY 294002 10 μM 4 hr. As to the method: (§1) We treated PC-3, DU145, and Caco-2 (colon adenocarcinoma) cells with lovastatin (LVT), perillyl alcohol (PA), the P13 kinase inhibitor, LY294002 (LY), or genistein (Gen). PC-3, DU145, and Caco-2 cells were plated in RPMI plus 10% FBS and cells allowed to grow for 24 hr. Medium was supplemented with lovastatin (1 μM for 16 hr), perillyl alcohol (400 μM for 16 hr), genistein (40 μM for 4 hr), or LY 294002 (10 μM for 4 hr). Cells were lysed in RIPA buffer and protein extracts quantitated. Aliquots (100 μg) were electrophoresed and transferred to PVDF membranes. […] The eIF4E (FIG. 6, top panel) and 4E-BP1 (FIG. 6, middle panel) were detected using antibodies specific for eIF4E and phospho-4E-BP1 (Ser65). Specific proteins were detected by ECL using a Kodak Image Station.
(§2) Referring now to FIG. 6 which depicts a Western blot analysis of eIF4E, 4E-BP1 (Ser65) and Rab3A from various cells. […] The same blot was reprobed with phospho-4E-BP1 (Ser65). […] Rab3A levels were also compared in the highly metastatic PC-3 cells, DU145 and in Caco-2, which is considered to have low metastatic potential.
(Immunoblotting shows a protein as a band on a membrane.)

Assay [2] deals with MMP-9. The assay is described as follows: Gelatin zymography of conditioned media, MMP-9. The class given is cell-based, human. The following applies: for MMP-9 Count: perillyl alcohol 400 μM, 16 hr. An excerpt:
(§3) Since the effects of isoprenoids with or without genistein on prostate cancer metastasis had not been explored prior to the present invention, the effects of genistein, perillyl alcohol, and γ-tocotrienol were studied on MMP-9 and MMP-2 activity. MMP activity as described in the background has been linked in part to the Ras/ERK pathway and may also be involved in a second unidentified pathway that is ERK-independent. Therefore, we employed gelatin zymography to study effects of isoprenoids on MMP-9 and MMP-2 activation and secretion.
(§4) Referring now to FIG. 8. which depicts a gelatin zymogram showing the effects of perillyl alcohol (PA), genistein (Gen), or γ-tocotrienol (g-Toco) on MMP activity. The results of FIG. 8 are quantified in Table 2. Cells were grown in 100 mm culture plates to approximately 80% confluency. Prior to experimental treatments, cells were washed extensively in serum-free medium and then incubated for […] in serum-free media with Mito plus® serum supplement (Becton-Dickinson) in the absence or presence of isoprenoids. Conditioned media were then collected from PC-3 and DU145 cells that were incubated in the absence or presence of genistein (20 μM), perillyl alcohol (400 μM), or γ-tocotrienol (20 μM) for 16 hr and clarified by centrifugation. MMP activity in conditioned media was analyzed by mixing aliquots with SDS sample loading buffer without β-mercaptoethanol (non-reducing). Samples were electrophoresed on a 10% polyacrylamide (29:1) separating gel containing 0.1% (w/v) gelatin. Gels were incubated in developing buffer at 37° C. overnight. Enzyme activity was observed after staining with Coomassie Blue as clear bands on a blue background of undigested gelatin. Band density was then normalized to cell number prior to- and post-treatment (See FIG. 8).

In assay [3] the test system is MMP-2. The assay is described as follows: Gelatin zymography of conditioned media, MMP-2. The class given is cell-based, human. The following applies: for MMP-2 Count: perillyl alcohol 400 μM, 16 hr.
From the text: as §3, §4

In assay [4] the test system is PC-3 prostate cancer cells. The experiment in a line: Membrane Invasion Culture System (MICS). Type of assay: cell-based, human. The following applies: for percent invaded: PC-3, 24 hr, MATRIGEL coated membrane, Perillyl Alcohol 400 μM, Genistein 20 μM, γ-tocotrienol 20 μM, control 12.5%; for invasive ability of PC-3 cells: PC-3, MICS. An excerpt: The Membrane Invasion Culture System (MICS) represents a direct measurement of intracellular reorganization and invasive capability of cancer cell lines. The MICS protocol was used to quantitate the effects of isoprenoid treatment on the invasive potential of PC-3 prostate cancer cells. Polycarbonate membranes (10 μm pores) were coated with a basement membrane matrix (MATRIGEL™, BD Biosciences) and placed inside MICS chambers. Both upper and lower chambers were filled with serum-free RPMI 1640 containing Mito plus™. Cells were seeded onto the upper wells at 1×10^5 cells/well. After 24 hr, cells that had invaded through the membrane were collected and counted. Invasion rates were calculated as the percent cells invading the matrix coated membrane compared to total number of cells seeded (Table 3).

For assay [5], the system named is DU145. The assay is described as follows: In vitro collagen gel contraction assay, DU145. As to conditions: Perillyl Alcohol 400 μM, Genistein 20 μM, control 3.0. The class given is cell-based, human. The protocol:
(§5) An in vitro collagen gel contraction assay was used to evaluate the effects of isoprenoids on biomechanical tumor cell matrix remodeling from various prostate cancer cell lines. Collagen gel suspensions for each tumor cell line were prepared by mixing a 250 μl suspension of 3×10^6 cells/ml with 250 μl of undiluted rat tail collagen type I (BD Biosciences). The resultant collagen gel suspensions were dripped onto 35 mm petri dishes containing 3 ml RPMI 1640 in 10% FBS to prevent adhesion of collagen to the dish. Collagen gel suspensions were allowed to polymerize for one hr. Isoprenoid treatments were added 24 hr after exchanging culture medium and were removed 24-48 hr post treatment.

Assay [6] concerns PC-3. The assay is described as follows: In vitro collagen gel contraction assay, PC-3. The class given is cell-based, human. The following applies: for Diameter (cm) of collagen gel: PC-3, Perillyl Alcohol 400 μM, Genistein 20 μM, control 2.0. The protocol:
as §5
Table 4 summaries the effects on collagen gel ball diameters for both PC3 and DU145 as a result from being exposed to various isoprenoids during the in vitro collagen gel contraction assay.

For assay [7], the system named is androgen-responsive prostate tumor cell line LNCaP. The following applies: cited from earlier work.
For assay [8], the system named is human prostate cancer cells. As to conditions: human prostate cancer cells in culture; cited from earlier work.
Assay [9] relates to HMG-CoA reductase. The experiment in a line: Rate of HMG-CoA reductase synthesis (35S-labeled immunoprecipitable reductase) in lovastatin-treated C100 cells. The class given is cell-based, Syrian Hamster. The following applies: for reductase synthesis lowered by: lovastatin treated C100 cells. As to the method: (§6) As discussed above, the end products of plant mevalonate metabolism, i.e., isoprenoids, suppress mammalian HMG-CoA reductase. To characterize the level at which plant-derived isoprenoids regulate reductase activity, lovastatin treated Syrian Hamster C100 cells were incubated with mevalonate or an isoprenoid (limonene, perillyl alcohol, or geraniol). These monoterpenes were selected because they are representative of isoprenoids found in a wide variety of plants, fruits and grains. C100 cells in which endogenous mevalonate biosynthesis is blocked with lovastatin have been a useful system to evaluate the effects of oxysterols and mevalonate-derived isoprenoids, either alone or in combination, on HMG-CoA reductase levels and rates of synthesis or degradation. […] The effects of the three isoprenoids on reductase degradation were also determined by measuring the half-life of HMG-CoA reductase.

The test system of assay [10] is HMG-CoA reductase mRNA. The experiment in a line: HMG-CoA reductase mRNA levels in lovastatin-treated C100 cells. The class given is cell-based, Syrian Hamster. The following applies: for reductase mRNA level lowered by / impact on HMG-CoA reductase mRNA levels: lovastatin treated C100 cells. The protocol: as §6
Assay [11] deals with HMG-CoA reductase. The experiment in a line: HMG-CoA reductase degradation (half-life) in lovastatin-treated SV28 cells. Type of assay: cell-based. The protocol: as §6
The subject of assay [12] is Rab3A. The experiment in a line: Western blot of Rab3A. Type of assay: cell-based, human. As to conditions: DU145 cells; perillyl alcohol 400 μM 16 hr. The protocol: as §1, §2
Where [13] appears, read: DU145 conditioned media, genistein 20 μM (control 30.71), γ-tocotrienol 20 μM (control 23.5).
[14] abbreviates: PC-3 conditioned media, genistein 20 μM (control 46.95), γ-tocotrienol 20 μM (control 18.14).
[15] abbreviates: DU145 conditioned media, genistein 20 μM (control 15.05), γ-tocotrienol 20 μM (control 5.5).
[16] abbreviates: PC-3 conditioned media, genistein 20 μM (control 11.85), γ-tocotrienol 20 μM (control 18.14).

Each structure is given as a SMILES string.

In the case of `O=c1c(-c2ccc(O)cc2)coc2cc(O)cc(O)c12` [Genistein, genistein], the “4E-BP1 Ser65 phosphorylation (Western blot)” value in assay [1] was “did not appear to affect Ser65 phosphorylation of the upper band but reduced phosphorylation of the lower of the two bands”. The “MMP-9 activity” value in [2] (DU145 cells) is recorded as “exhibited no similar effect”; in [2] (PC-3 cells), “nearly ninety percent”. Besides, the “MMP-9 Count” value in assay [2] (setting [13]) is 47.64; in assay [2] (setting [14]), 5.25. The “MMP-2 Count” value in [3] (setting [15]) was found to be 23.54; in [3] (setting [16]), 4.25. This compound also gave a percent invaded in assay [4] of 0%. Further, in [4], the “invasive ability of PC-3 cells” value is given as “inhibited the invasive ability of PC-3 cells, with genistein exhibiting the greatest effect”. Moreover, the “Diameter (cm) of collagen gel” value amounted to 3.2 cm in [5] and 3.5 cm in assay [6]. For the same compound, in assay [7], the “concentration shown to induce apoptosis” value is “above 20 μM”. Also, the concentration inhibiting growth result in assay [8] is given as “above 50 μmol”.

With `CC(C)=CCC/C(C)=C/CO` [Geraniol, geraniol], in [9], the “reductase synthesis lowered by” value was 98%. Also, the “reductase mRNA level lowered by” value in assay [10] was 64%. Besides, in assay [11], the “effect on half-life of reductase” value is on record as “Neither limonene nor geraniol affected the half-life”.

For `CC[C@H](C)C(=O)O[C@H]1C[C@@H](C)C=C2C=C[C@H](C)[C@H](CC[C@@H]3C[C@@H](O)CC(=O)O3)[C@H]21` [Lovastatin, lovastatin, reference compound], in [9] (percentage (mean ± S.D.) of lovastatin-treated C100 cells set at 100%, 1 hr 35S labeling, mevalonate 10 mM, limonene 5 mM, perillyl alcohol 0.7 mM, geraniol 0.4 mM), the “Rate of Synthesis (reductase)” value turned out to be 100 ± 15%. Besides, the “mRNA Levels (reductase)” value in assay [10] (percentage of lovastatin-treated cells set at 100%, corrected to RP S17 mRNA, mevalonate 10 mM, limonene 5 mM, perillyl alcohol 0.7 mM, geraniol 0.4 mM) is on record as 100 ± 5%.

As for `CC(O)(CCO)CC(=O)O` (stereo not shown) [Mevalonate, mevalonate, reference compound], the “reductase synthesis lowered by” value in [9] was 65%. For the same compound, in assay [10], the “reductase mRNA level lowered by” value stood at 65%. For the same compound, the “HMG-CoA reductase half-life decreased by” value in assay [11] is given as “approximately 60%”.

With `C=C(C)[C@@H]1CC=C(CO)CC1` [Perillyl Alcohol, perillyl alcohol], in [9], the “reductase synthesis lowered by” value is listed as 89%. In [10], the “impact on HMG-CoA reductase mRNA levels” value is recorded as “neither limonene nor perillyl alcohol had a significant impact”. Also, the “4E-BP1 Ser65 phosphorylation (Western blot)” value in [1] is recorded as “reduced Ser65 phosphorylation”. Moreover, in [12], the “Rab3A protein level (Western blot)” value is reported as “further reduce the levels of Rab3A protein”. Also, the “MMP-9 activity” value in assay [2] (DU145 cells) is listed as “nearly extinguished all MMP-9 activity”; in assay [2] (PC-3 cells) it was “exhibited no similar effect”. Moreover, the entries for the “MMP-9 Count” value in assay [2] (setting [13]) and in [2] (setting [14]) were 0.09 and 72.65, respectively. The “MMP-2 Count” value in [3] (setting [15]) worked out at 10.63; in assay [3] (setting [16]), 6.73. In assay [4], the percent invaded was determined as 5%. Also, the “invasive ability of PC-3 cells” value in assay [4] is listed as “inhibited the invasive ability”. The “Diameter (cm) of collagen gel” value stood at 3.75 cm in [5] and 3.2 cm in assay [6]. In [6] (PC3 cells, FIG. 9), the “extracellular matrix remodeling of gel ball” value is listed as “retards matrix remodeling”.

Consider `C=C(C)[C@H]1CC=C(C)CC1` [limonene], for which, in assay [9], the “reductase synthesis lowered by” value is given as 70%. In [10], the “impact on HMG-CoA reductase mRNA levels” value is “neither limonene nor perillyl alcohol had a significant impact”. In addition, in assay [11], the “effect on half-life of reductase” value is given as “Neither limonene nor geraniol affected the half-life”.

Turning to `CC(C)=CCC/C(C)=C/CC/C(C)=C/CC[C@]1(C)CCc2cc(O)c(C)c(C)c2O1` [γ-tocotrienol], the “MMP-9 activity” value in assay [2] (DU145 cells) and in assay [2] (PC-3 cells) was “modest monotonic decreases” in each case. The “MMP-9 Count” value amounted to 16.5 in [2] (setting [13]) and 27.4 in assay [2] (setting [14]). Also, the “MMP-2 activity” value in assay [3] (DU145 cells) and in [3] (PC-3 cells) was “modest monotonic decreases” each time. The “MMP-2 Count” value in [3] (setting [15]) is recorded as −2.2; in assay [3] (setting [16]), 15.3. Also, the percent invaded in assay [4] was 7%. Besides, the “invasive ability of PC-3 cells” value in [4] is “inhibited the invasive ability”.
